Legend:
Format in all cases: cell-based, Human
[1] = test system: KATO III (FGFR2 amp); experiment: In vitro growth inhibition of KATO III tumor cells (MTT/CCK8); details: Homo sapiens, KATO III; in vitro growth inhibition (or induction of apoptosis), cells cultured 3 to 5 days, MTT (CCK8); read-out: IC50 KATO III (FGFR2 amp)
[2] = test system: Kasumi-1 (KIT N822K); experiment: In vitro growth inhibition of Kasumi-1 tumor cells (MTT/CCK8); details: Homo sapiens, Kasumi 1; in vitro growth inhibition (or induction of apoptosis), cells cultured 3 to 5 days, MTT (CCK8); read-out: IC50 Kasumi-1 (KIT N822K)
[3] = test system: MOLM-13 (FLT3-ITD); experiment: In vitro growth inhibition of MOLM-13 tumor cells (MTT/CCK8); details: Homo sapiens, MOLM-13; in vitro growth inhibition (or induction of apoptosis), cells cultured 3 to 5 days, MTT (CCK8); read-out: IC50 MOLM-13 (FLT3-ITD)
[4] = test system: H1581 (FGFR1 amp); experiment: In vitro growth inhibition of H1581 tumor cells (MTT/CCK8); details: Homo sapiens, NCI-H1581; in vitro growth inhibition (or induction of apoptosis), cells cultured 3 to 5 days, MTT (CCK8); read-out: IC50 H1581 (FGFR1 amp)
[5] = test system: KCL-22 (BCR-ABL); experiment: In vitro growth inhibition of KCL-22 tumor cells (MTT/CCK8); details: Homo sapiens, KCL-22; in vitro growth inhibition (or induction of apoptosis), cells cultured 3 to 5 days, MTT (CCK8); read-out: IC50 KCL-22 (BCR-ABL)
[6] = test system: Karpas 299 (NPM-ALK); experiment: In vitro growth inhibition of Karpas 299 tumor cells (MTT/CCK8); details: Homo sapiens, KARPAS-299; in vitro growth inhibition (or induction of apoptosis), cells cultured 3 to 5 days, MTT (CCK8); read-out: IC50 Karpas 299 (NPM-ALK)
[7] = test system: H1703 (PDGFRa amp); experiment: In vitro growth inhibition of H1703 tumor cells (MTT/CCK8); details: Homo sapiens, NCI-H1703; in vitro growth inhibition (or induction of apoptosis), cells cultured 3 to 5 days, MTT (CCK8); read-out: IC50 H1703 (PDGFRa amp)
[8] = test system: Hep3B2 (FGFR3/4+++); experiment: In vitro growth inhibition of Hep3B2 tumor cells (MTT/CCK8); details: Homo sapiens, Hep3B; in vitro growth inhibition (or induction of apoptosis), cells cultured 3 to 5 days, MTT (CCK8); read-out: IC50 Hep3B2 (FGFR3/4+++)

IC50 [1] [nM] | IC50 [2] [nM] | IC50 [3] [nM] | IC50 [4] [nM] | IC50 [5] [nM] | IC50 [6] [nM] | IC50 [7] [nM] | IC50 [8] [nM] | Structure (SMILES)
1.62 | 23.7 | 17.8 | 15.5 | 22 | 276 | 16.7 | 26.1 | COc1cc2nccc(Oc3ccc(NC(=O)Nc4cc(C(C)(C)C)nn4C4CCCC4)c(Cl)c3)c2cc1C(N)=O [Compound 30, 4-{4-[3-(5-tert-butyl-2-cyclopentyl-2H-pyrazol-3-yl)-ureido]-3-chloro-phenoxy}-7-methoxyquinolin-6-carboxamide]
0.12 | 40.4 | 9.45 | 23.4 | 51.2 | 465 | 25 | 32.9 | COc1cc2nccc(Oc3ccc(NC(=O)Nc4cc(C(C)(C)C)nn4CCN4CCOCC4)c(Cl)c3)c2cc1C(N)=O [Compound 31, 4-(4-{3-[5-tert-butyl-2-(2-morpholin-4-yl-ethyl)-2H-pyrazol-3-yl]-ureido}-3-chloro-phenoxy)-7-methoxyquinolin-6-carboxamide]
0.18 | 132 | 17.1 | 35.8 | 163 | 736 | 73.2 | 56.6 | COc1cc2nccc(Oc3ccc(NC(=O)Nc4cc(C(C)(C)C)nn4CCO)c(Cl)c3)c2cc1C(N)=O [Compound 32, 4-(4-{3-[5-tert-butyl-2-(2-hydroxy-ethyl)-2H-pyrazol-3-yl]-ureido}-3-chloro-phenoxy)-7-methoxyquinolin-6-carboxamide]
0.71 | 46.4 | 28.1 | 49.8 | 25.7 | 632 | 73 | 130 | COc1cc2nccc(Oc3ccc(NC(=O)Nc4cc(C(C)(C)C)n[nH]4)c(C(F)(F)F)c3)c2cc1C(N)=O [Compound 33, 4-{4-[3-(5-tert-butyl-2H-pyrazol-3-yl)-ureido]-3-trifluoromethyl-phenoxy}-7-methoxyquinolin-6-carboxamide]
1.62 | 135 | 14.6 | 57.5 | 98.2 | 641 | 88.1 | 96.4 | COc1cc2nccc(Oc3ccc(NC(=O)Nc4cc(C(C)(C)C)n[nH]4)c(C)c3)c2cc1C(N)=O [Compound 34, 4-{4-[3-(5-tert-butyl-2H-pyrazol-3-yl)-ureido]-3-methyl-phenoxy}-7-methoxyquinolin-6-carboxamide]
> 1000 | > 1000 | > 1000 | > 1000 | > 2500 | > 1000 | > 1000 | > 1000 | COc1cc2nc(Cl)cc(Oc3ccc(NC(=O)Nc4cc(C(C)(C)C)nn4C)c(Cl)c3)c2cc1C(N)=O [Compound 39, 4-{4-[3-(5-tert-butyl-2-methyl-2H-pyrazol-3-yl)-ureido]-3-chloro-phenoxy}-2-chloro-7-methoxyquinolin-6-carboxamide]
2.53 | 106 | 19.6 | 127 | 112 | 721 | 93 | 446 | COc1cc2nccc(Oc3ccc(NC(=O)Nc4cc(C(C)C)n[nH]4)c(Cl)c3)c2cc1C(N)=O [Compound 40, 4-{3-chloro-4-[3-(5-isopropyl-2H-pyrazol-3-yl)-ureido]-phenoxy}-7-methoxyquinolin-6-carboxamide]
40.1 | 736 | 134 | 450 | 353 | > 1000 | 124 | 514 | COc1cc2nccc(Oc3ccc(NC(=O)Nc4cc(C5CC5)n[nH]4)c(Cl)c3)c2cc1C(N)=O [Compound 41, 4-{3-chloro-4-[3-(5-cyclopropyl-2H-pyrazol-3-yl)-ureido]-phenoxy}-7-methoxyquinolin-6-carboxamide]
5.69 | 149 | 51.5 | 38.5 | 102 | 558 | 37.2 | 64.3 | CC(C)Oc1cc2nccc(Oc3ccc(NC(=O)Nc4cc(C(C)(C)C)n[nH]4)c(Cl)c3)c2cc1C(N)=O [Compound 43, 4-{4-[3-(5-tert-butyl-2H-pyrazol-3-yl)-ureido]-3-chloro-phenoxy}-7-isopropoxy-quinolin-6-carboxamide]
1.08 | 7.94 | 3.81 | 1.61 | 2.21 | 298 | 6.49 | 11.3 | COCCOc1cc2nccc(Oc3ccc(NC(=O)Nc4cc(C(C)(C)C)nn4C)c(Cl)c3)c2cc1C(N)=O [Compound 44, 4-{4-[3-(5-tert-butyl-2-methyl-2H-pyrazol-3-yl)-ureido]-3-chloro-phenoxy}-7-(2-methoxy-ethoxy)-quinolin-6-carboxamide]
1.46 | 34.2 | 6.32 | 16.5 | 21.8 | 413 | 25.7 | 39.6 | CNC(=O)c1cc2c(Oc3ccc(NC(=O)Nc4cc(C(C)(C)C)n[nH]4)c(Cl)c3)ccnc2cc1OC [Compound 45, 4-{4-[3-(5-tert-butyl-2H-pyrazol-3-yl)-ureido]-3-chloro-phenoxy}-7-methoxyquinolin-6-carboxylic acid methylamide]
0.98 | 14.4 | 6.98 | 3.06 | 8.17 | 384 | 8.8 | 39.1 | CNC(=O)c1cc2c(Oc3ccc(NC(=O)Nc4cc(C(C)(C)C)nn4C)c(Cl)c3)ccnc2cc1OC [Compound 46, 4-{4-[3-(5-tert-butyl-2-methyl-2H-pyrazol-3-yl)-ureido]-3-chloro-phenoxy}-7-methoxy quinolin-6-carboxylic acid methylamide]
0.73 | 15.9 | 7.42 | 4.93 | 9.38 | 466 | 14.7 | 39.3 | CCn1nc(C(C)(C)C)cc1NC(=O)Nc1ccc(Oc2ccnc3cc(OC)c(C(=O)NC)cc23)cc1Cl [Compound 47]
1.36 | 35.7 | 11.6 | 11.7 | 22.3 | 502 | 25.9 | 44.1 | CNC(=O)c1cc2c(Oc3ccc(NC(=O)Nc4cc(C(C)(C)C)nn4C4CCCC4)c(Cl)c3)ccnc2cc1OC [Compound 48, 4-{4-[3-(5-tert-butyl-2-cyclopentyl-2H-pyrazol-3-yl)-ureido]-3-chloro-phenoxy}-7-methoxyquinolin-6-carboxylic acid methylamide]
2.93 | 100 | 18.1 | 63.1 | 31.2 | > 1000 | 15.4 | 93.1 | CNC(=O)c1cc2c(Oc3ccc(NC(=O)Nc4cc(C(C)(C)C)n[nH]4)c(C)c3)ccnc2cc1OC [Compound 49, 4-{4-[3-(5-tert-butyl-2H-pyrazol-3-yl)-ureido]-3-methyl-phenoxy}-7-methoxyquinolin-6-carboxylate acid methylamide]

Reference: patent US10800741B2 (ANCUREALL PHARMACEUTICAL (SHANGHAI) CO., LTD., priority 2017, dated 2020)
